Assay: Dye loss from coated membranes type P in stirred saline
Format: physicochemical
Conditions: water-soluble dye, stirred saline at 37° C., 5 min
Description: Membranes type P were coated either with a water-soluble dye without resveratrol or combined with resveratrol.

Oc1ccc(C=Cc2cc(O)cc(O)c2)cc1 [Resveratrol, resveratrol]
adhesion of the dye: significantly improved the adhesion of the dye

Source: patent publication US9974888B2, “Formulations for drug-coated medical devices” (priority 2010, dated 2018)
